Experimental data from ChEMBL document CHEMBL1201862, “PubChem BioAssay data set” (2004).
Activity calls are given as the source filed them.

Assays:
[1] = alpha-synuclein stem-loop luciferase translation blockers – H4 neuroglioma cells, luminescence, confirmation (AID 1988); assay type: functional, cell-based
[2] = Luminescence Cell-Based Dose Response HTS to Identify Inhibitors of 5'UTR Stem-Loop Driven Prion Protein mRNA Translation in H4 Neuroglioblastoma Cells. [Related pubchem assays: 1827 (Project Summary), 1813 (Primary HTS)]; assay type: functional
[3] = tested on: Vero; assay: mammalian cell viability reduction – secondary assay, cytotoxicity control for West Nile virus antiviral project, dose response (AID 1650); assay type: functional; settings: Chlorocebus sabaeus
[4] = tested on: Vero; assay: inhibition of WNV-induced cytopathic effect – cell-based, CPE readout (AID 1621); assay type: functional; settings: Chlorocebus sabaeus
[5] = tested on: Vero; assay: cells; assay type: functional; settings: Chlorocebus sabaeus
[6] = luciferase reporter signal suppression in cells – H4 neuroglioma cells, luminescence, dose response (AID 1990); assay type: functional, cell-based
[7] = molecular target: Prothrombin (Homo sapiens, UniProt P00734); assay: Thrombin 1536 HTS Dose Response Confirmation. [Related pubchem assays: 1046 (Thrombin 1536 HTS; hits were confirmed in this assay)]; assay type: functional
[8] = molecular target: T1, Serine/threonine-protein phosphatase (Homo sapiens, UniProt Q9BPW0); assay: inhibition of protein phosphatase 5 activity – biochemical, fluorescence, dose response (AID 2395)
T1 sequence (Q9BPW0 whole entry): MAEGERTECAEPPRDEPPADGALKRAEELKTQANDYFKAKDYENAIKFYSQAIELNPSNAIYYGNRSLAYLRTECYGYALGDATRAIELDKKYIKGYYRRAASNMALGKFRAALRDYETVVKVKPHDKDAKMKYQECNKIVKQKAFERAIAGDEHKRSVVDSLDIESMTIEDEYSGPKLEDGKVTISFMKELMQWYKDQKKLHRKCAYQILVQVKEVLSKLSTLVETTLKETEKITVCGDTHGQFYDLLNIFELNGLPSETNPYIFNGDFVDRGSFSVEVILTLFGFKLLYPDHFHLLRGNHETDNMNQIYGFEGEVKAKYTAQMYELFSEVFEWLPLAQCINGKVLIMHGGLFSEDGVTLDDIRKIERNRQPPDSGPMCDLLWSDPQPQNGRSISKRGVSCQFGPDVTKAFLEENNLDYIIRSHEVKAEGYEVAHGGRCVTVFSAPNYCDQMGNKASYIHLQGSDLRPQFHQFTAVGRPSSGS

[9] = molecular target: Serine/threonine-protein phosphatase PP1-alpha catalytic subunit (Homo sapiens, UniProt P62136); assay: inhibition of protein phosphatase 1 activity – biochemical, fluorescence, dose response (AID 2394)
Chain of Serine/threonine-protein phosphatase PP1-alpha catalytic subunit (P62136 whole entry): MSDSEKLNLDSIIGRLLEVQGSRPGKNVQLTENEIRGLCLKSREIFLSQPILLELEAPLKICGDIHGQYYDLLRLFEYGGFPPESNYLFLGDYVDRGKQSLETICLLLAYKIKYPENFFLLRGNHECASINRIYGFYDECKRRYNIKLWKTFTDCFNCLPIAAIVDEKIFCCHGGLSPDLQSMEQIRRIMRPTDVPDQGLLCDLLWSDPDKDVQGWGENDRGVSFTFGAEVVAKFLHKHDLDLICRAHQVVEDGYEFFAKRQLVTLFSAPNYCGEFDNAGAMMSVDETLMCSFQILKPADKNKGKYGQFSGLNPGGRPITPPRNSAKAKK

[10] = molecular target: T2, Aminopeptidase N (Plasmodium falciparum FcB1/Columbia, UniProt O96935); assay: malaria alanyl aminopeptidase activity blockers – biochemical, fluorogenic H-Leu-NHMec substrate, 1536-well (AID 1445); set-up: species or system Plasmodium falciparum 3D7, 3D7
T2 sequence (O96935 whole entry): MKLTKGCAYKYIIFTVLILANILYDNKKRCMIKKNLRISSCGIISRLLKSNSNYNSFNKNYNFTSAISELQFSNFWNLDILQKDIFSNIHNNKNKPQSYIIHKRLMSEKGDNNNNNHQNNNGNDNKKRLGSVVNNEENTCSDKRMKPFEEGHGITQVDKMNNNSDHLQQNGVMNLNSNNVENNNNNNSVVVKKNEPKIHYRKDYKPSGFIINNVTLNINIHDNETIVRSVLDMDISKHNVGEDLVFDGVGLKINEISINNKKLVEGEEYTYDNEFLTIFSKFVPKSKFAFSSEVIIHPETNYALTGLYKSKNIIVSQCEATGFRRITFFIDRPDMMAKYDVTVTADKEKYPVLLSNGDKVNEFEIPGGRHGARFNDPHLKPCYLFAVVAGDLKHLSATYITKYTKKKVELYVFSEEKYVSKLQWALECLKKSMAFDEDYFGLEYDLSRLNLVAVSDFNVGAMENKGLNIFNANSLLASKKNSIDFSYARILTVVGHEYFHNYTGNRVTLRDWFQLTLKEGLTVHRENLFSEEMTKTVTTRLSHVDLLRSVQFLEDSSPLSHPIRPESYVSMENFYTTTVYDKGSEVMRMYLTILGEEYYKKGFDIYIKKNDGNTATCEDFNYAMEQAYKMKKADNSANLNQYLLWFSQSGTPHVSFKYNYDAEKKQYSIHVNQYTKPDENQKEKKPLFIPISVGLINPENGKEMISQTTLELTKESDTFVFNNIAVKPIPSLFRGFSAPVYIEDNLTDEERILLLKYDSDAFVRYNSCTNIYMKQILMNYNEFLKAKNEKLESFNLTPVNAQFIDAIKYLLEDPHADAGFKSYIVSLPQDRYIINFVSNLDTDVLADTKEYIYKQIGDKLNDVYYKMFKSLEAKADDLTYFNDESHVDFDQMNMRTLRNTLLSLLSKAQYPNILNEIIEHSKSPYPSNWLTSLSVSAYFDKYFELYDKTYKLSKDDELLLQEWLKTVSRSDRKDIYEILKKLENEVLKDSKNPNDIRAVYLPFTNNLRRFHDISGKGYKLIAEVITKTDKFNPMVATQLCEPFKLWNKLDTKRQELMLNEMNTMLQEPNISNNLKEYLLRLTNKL

With `COc1ccc(C2c3ccc4ccccc4c3Oc3ncn(CCN4CCOCC4)c(=N)c32)cc1OC` (stereo unspecified) the EC50 [1] was 9.75 µM (active), the EC50 [2] was 33.4 µM (active) and the CC50 [3] was > 100 µM (active). For the same compound, the IC50 [4] was 31.4 µM (active), the CC50 [5] was 23.8 µM (active) and the EC50 [6] was > 120 µM (not active).

In the case of `Clc1ccc2oc(-c3ccccc3)cc(=NCCCN3CCOCC3)c2c1`, the IC50 [7] is reported as 24.2 µM (active).

With `COC(=O)CCC(=O)OC1(C)C(=O)C2=CN(CC(C)C)C(c3ccc(OC)cc3)=CC2=C(Br)C1=O` (stereo unspecified) the IC50 [8] was 37.5 µM (not active) and the IC50 [9] was 28.3 µM (not active).

For `COc1ccccc1C1C=C(c2ccc(Cl)cc2)Nc2nc(N3C(=O)CCC3=O)nn21` (stereo unspecified), the IC50 [10] was 31.3 µM (active) and the IC50 [7] was 5.84 µM (active).
